Our source for the IC50 and ΔTm values is ChEMBL document CHEMBL5375956, “Discovery of Pyrazolo[1,5-a]pyrimidine Derivative as a Novel and Selective ALKBH5 Inhibitor for the Treatment of AML” (J Med Chem, 2023).

In assay [1] the target is T1, RNA demethylase ALKBH5 (Homo sapiens, UniProt Q6P6C2). Briefly: Inhibition of ALKBH5 (66 to 292 residues)(unknown origin) expressed in Escherichia coli BL21(DE3) using 5'-ATTGTCA(m6A)CAGCAGA-FAM-3' as substrate incubated for 30 mins by FP assay.
Target sequence in this assay (Q6P6C2 whole entry, the tested form may be a part): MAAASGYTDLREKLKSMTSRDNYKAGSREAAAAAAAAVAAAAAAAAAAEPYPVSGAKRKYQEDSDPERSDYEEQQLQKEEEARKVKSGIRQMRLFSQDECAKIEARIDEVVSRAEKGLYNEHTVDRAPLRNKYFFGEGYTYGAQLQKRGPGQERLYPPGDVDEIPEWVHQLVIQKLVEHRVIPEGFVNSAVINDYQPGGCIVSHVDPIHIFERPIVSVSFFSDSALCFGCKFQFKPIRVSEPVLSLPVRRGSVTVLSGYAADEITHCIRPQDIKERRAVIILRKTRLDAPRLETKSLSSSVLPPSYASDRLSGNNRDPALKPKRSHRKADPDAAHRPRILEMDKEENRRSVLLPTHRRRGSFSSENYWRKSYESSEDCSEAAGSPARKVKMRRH
Assay [2] concerns the target Alpha-ketoglutarate-dependent dioxygenase FTO (Homo sapiens, UniProt Q9C0B1). The assay is described as follows: Inhibition of FTO (32 to 505 residues)(unknown origin) expressed in Escherichia coli BL21(DE3) by FP assay.
Assay [3] addresses T1, RNA demethylase ALKBH5. Briefly: Inhibition of ALKBH5 (66 to 292 residues)(unknown origin) expressed in Escherichia coli BL21(DE3) using 5'-ATTGTCA(m6A)CAGCAGA-FAM-3' as substrate incubated for 30 mins in presence of 2 uM of 2-OG by FP based competitive binding assay.
Target sequence in this assay (Q6P6C2 whole entry, the tested form may be a part): as above
Assay [4] concerns the target T1, RNA demethylase ALKBH5. Briefly: Inhibition of ALKBH5 (66 to 292 residues)(unknown origin) expressed in Escherichia coli BL21(DE3) using 5'-ATTGTCA(m6A)CAGCAGA-FAM-3' as substrate incubated for 30 mins in presence of 0.2 uM of 2-OG by FP based competitive binding assay.
Target sequence in this assay (Q6P6C2 whole entry, the tested form may be a part): as above
The target in assay [5] is T1, RNA demethylase ALKBH5. The assay is described as follows: Inhibition of ALKBH5 (66 to 292 residues)(unknown origin) expressed in Escherichia coli BL21(DE3) using 5'-ATTGTCA(m6A)CAGCAGA-FAM-3' as substrate incubated for 30 mins in presence of 200 uM of 2-OG by FP based competitive binding assay.
Target sequence in this assay (Q6P6C2 whole entry, the tested form may be a part): as above
For assay [6], the target named is T1, RNA demethylase ALKBH5. Briefly: Inhibition of ALKBH5 (66 to 292 residues)(unknown origin) expressed in Escherichia coli BL21(DE3) using 5'-ATTGTCA(m6A)CAGCAGA-FAM-3' as substrate incubated for 30 mins in presence of 20 uM of 2-OG by FP based competitive binding assay.
Target sequence in this assay (Q6P6C2 whole entry, the tested form may be a part): as above
In assay [7] the target is T1, RNA demethylase ALKBH5. Briefly: Binding affinity to ALKBH5 (66 to 292 residues)(unknown origin) expressed in Escherichia coli BL21(DE3) assessed as increase in melting temperature incubated for 30 mins by thermal shift assay.
Target sequence in this assay (Q6P6C2 2-394 limits assumed): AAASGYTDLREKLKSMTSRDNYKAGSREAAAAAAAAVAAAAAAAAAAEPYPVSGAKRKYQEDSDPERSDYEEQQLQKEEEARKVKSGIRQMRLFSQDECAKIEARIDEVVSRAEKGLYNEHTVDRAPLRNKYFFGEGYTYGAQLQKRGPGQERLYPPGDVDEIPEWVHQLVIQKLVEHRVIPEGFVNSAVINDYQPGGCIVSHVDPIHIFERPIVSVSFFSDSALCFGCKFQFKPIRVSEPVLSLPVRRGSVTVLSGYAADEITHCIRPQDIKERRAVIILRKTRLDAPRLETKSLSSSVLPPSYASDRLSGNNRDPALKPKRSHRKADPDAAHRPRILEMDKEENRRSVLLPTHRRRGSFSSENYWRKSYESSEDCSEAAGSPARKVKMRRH

Sequence of Alpha-ketoglutarate-dependent dioxygenase FTO (Q9C0B1 whole entry, the tested form may be a part): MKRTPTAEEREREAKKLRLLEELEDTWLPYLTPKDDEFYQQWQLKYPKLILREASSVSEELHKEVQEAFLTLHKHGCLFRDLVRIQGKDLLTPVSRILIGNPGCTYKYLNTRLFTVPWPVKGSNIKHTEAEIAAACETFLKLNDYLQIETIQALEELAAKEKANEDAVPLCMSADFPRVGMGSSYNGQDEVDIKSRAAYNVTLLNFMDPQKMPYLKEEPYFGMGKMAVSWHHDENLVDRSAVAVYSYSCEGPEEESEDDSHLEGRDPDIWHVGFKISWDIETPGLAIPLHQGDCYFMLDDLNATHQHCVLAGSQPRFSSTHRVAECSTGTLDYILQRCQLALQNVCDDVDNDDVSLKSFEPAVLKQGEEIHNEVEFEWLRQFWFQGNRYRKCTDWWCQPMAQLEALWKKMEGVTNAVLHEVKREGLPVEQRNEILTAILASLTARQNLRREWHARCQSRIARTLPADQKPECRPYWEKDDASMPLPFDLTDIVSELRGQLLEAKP

In general, IC50 refers to the concentration that inhibits the measured activity by half. In the case of `O=C(OCc1ccc(Cl)cc1)c1ccc(-c2cc3ncc(C(=O)c4cc([N+](=O)[O-])ccc4O)cn3n2)cc1`, the IC50 is 10.7 µM at RNA demethylase ALKBH5 [1] and more than 200 µM in assay [2].
On the same counts, the results for `O=C(OCc1ccc(C(F)(F)F)cc1)c1ccc(-c2cc3ncc(C(=O)c4cc([N+](=O)[O-])ccc4O)cn3n2)cc1` are 4.64 µM and more than 200 µM.
At RNA demethylase ALKBH5 [1], `O=C(c1cnc2cc(-c3ccccc3)nn2c1)c1cc([N+](=O)[O-])ccc1O` gave an IC50 of 45.1 µM.
Turning to `COc1ccc([N+](=O)[O-])cc1C(=O)c1cnc2cc(-c3ccc(Cl)cc3)nn2c1`, the IC50 (against RNA demethylase ALKBH5 [1]; in assay [2]) was more than 200 µM each time.
For `O=C(c1cnc2cc(-c3cccc(Cl)c3)nn2c1)c1cc([N+](=O)[O-])ccc1O`, the concentration for half-maximal inhibition (IC50) on RNA demethylase ALKBH5 [1] is 24.6 µM; in assay [2], more than 200 µM.
Consider `O=C(O)c1ccnc(C(=O)NS(=O)(=O)c2ccccc2)c1`, for which the IC50 against RNA demethylase ALKBH5 [1] turned out to be 67.7 µM; on RNA demethylase ALKBH5 [3], 135 µM; on RNA demethylase ALKBH5 [4], 87.6 µM; at RNA demethylase ALKBH5 [5], 269 µM; on RNA demethylase ALKBH5 [6], 211 µM.
Take `O=C(c1cnc2cc(-c3ccc(Cl)cc3)nn2c1)c1c(O)ccc([N+](=O)[O-])c1O`: the half-maximal inhibitory concentration (IC50) worked out at 14.4 µM against RNA demethylase ALKBH5 [1] and 8.39 µM in assay [2].
On the same counts, the results for `Cc1ccc(COC(=O)c2ccc(-c3cc4ncc(C(=O)c5cc([N+](=O)[O-])ccc5O)cn4n3)cc2)cc1` are 41 µM and more than 200 µM.
Usually ΔTm stands for the shift of the melting midpoint relative to a reference. For the compound `O=C(c1cnc2cc(-c3ccc(Cl)cc3)nn2c1)c1cc([N+](=O)[O-])ccc1O`, the ΔTm at RNA demethylase ALKBH5 [7] is more than 1 °C. The concentration for half-maximal inhibition (IC50) was 15.6 µM against RNA demethylase ALKBH5 [1] and more than 200 µM in assay [2].
Take `O=C(c1cnc2cc(-c3ccc(C(F)(F)F)cc3)nn2c1)c1cc([N+](=O)[O-])ccc1O`: the values for the IC50 (at RNA demethylase ALKBH5 [1]; in assay [2]) were 23.3 µM and more than 200 µM, respectively.
For `O=C(c1cnc2cc(-c3ccc(Cl)cc3)nn2c1)c1ccccc1O`, the IC50 (at RNA demethylase ALKBH5 [1]; in assay [2]) was more than 200 µM throughout.
Regarding `O=C(OCc1ccccc1)c1ccc(-c2cc3ncc(C(=O)c4cc([N+](=O)[O-])ccc4O)cn3n2)cc1`, the IC50 was 7.88 µM at RNA demethylase ALKBH5 [1] and more than 200 µM in assay [2].
Turning to `COC(=O)c1ccc(-c2cc3ncc(C(=O)c4cc([N+](=O)[O-])ccc4O)cn3n2)cc1`, the 50% inhibitory concentration (IC50) against RNA demethylase ALKBH5 [1] is 9.12 µM; in assay [2], more than 200 µM.
On the same counts, the results for `O=C(O)c1ccc(O)c(C(=O)c2cnc3cc(-c4ccc(Cl)cc4)nn3c2)c1` are 141 µM and more than 200 µM.
On the same counts, the results for `O=C(O)c1ccc(-c2cc3ncc(C(=O)c4cc([N+](=O)[O-])ccc4O)cn3n2)cc1` are 56.5 µM and 5.98 µM.
On to `O=C(c1cnc2cc(-c3ccc(Cl)cc3)nn2c1)c1cc(C(F)(F)F)ccc1O`, for which the concentration for half-maximal inhibition (IC50) (at RNA demethylase ALKBH5 [1]; in assay [2]) was more than 200 µM in each case.
Consider `Cc1ccc(-c2cc3ncc(C(=O)c4cc([N+](=O)[O-])ccc4O)cn3n2)cc1`, for which the concentration for half-maximal inhibition (IC50) (on RNA demethylase ALKBH5 [1]; in assay [2]) was more than 200 µM each time.
Turning to `O=C(c1cnc2cc(-c3ccccc3Cl)nn2c1)c1cc([N+](=O)[O-])ccc1O`, the 50% inhibitory concentration (IC50) was 102 µM against RNA demethylase ALKBH5 [1] and more than 200 µM in assay [2].
In the case of `O=C(c1cnc2cc(-c3ccc(O)cc3)nn2c1)c1cc([N+](=O)[O-])ccc1O`, the IC50 against RNA demethylase ALKBH5 [1] stood at 46.4 µM; in assay [2] it was 16.6 µM.
With `O=C(c1cnc2cc(-c3ccc(Cl)cc3)nn2c1)c1cccc([N+](=O)[O-])c1O`, the values for the 50% inhibitory concentration (IC50) (against RNA demethylase ALKBH5 [1]; in assay [2]) were 62.7 µM and more than 200 µM, respectively.
